Results from paper PMC6348443 (Journal of Medicinal Chemistry, 2018).
Where a name gives a salt, the structure may show the parent alone. Read-outs that look alike come from different tables or passages of the source.

How the values were obtained:
KOR [1] = target: T1, KOR (Homo sapiens, UniProt P41145); assay: [35S]GTPγS binding assay, CHO-hKOR membranes; assay type: biochemical; details: for EC50: [35S]GTPγS, CHO human KOR membranes, read-out: KOR EC50; for Emax: relative to reference full agonist U69,593, read-out: KOR % stim.
T1 construct: host or cells: CHO (CHO-hKOR)

[2] = system: peripheral opioid receptors; assay: antagonism by naloxone methiodide in the acetic acid-induced writhing assay; assay type: in vivo, mouse; details: sc co-administration with naloxone methiodide 1 mg/kg; agonist 50 or 200 μg/kg sc; 30 min
Excerpt: To determine whether targeted 6-amino acid and 6-dipeptide analogues inhibit writhing behavior in mice through peripheral opioid receptors activation, we used naloxone methiodide.[27]
Values are shown as mean of writhes ± SEM (n = 6–7 mice per group). ***P < 0.001 vs control group; ^#P < 0.05, ^##P < 0.01 and ^###P < 0.001 vs agonist treated group, ANOVA with Tukey’s post hoc test.
Writhing was induced in male CD1 mice by ip injection of a 0.6% acetic acid aqueous solution as described previously.[48],[62] Groups of mice were administered sc different doses of test compound or saline (control), and 5 min prior to testing (25 min after drug or saline), each animal received an ip injection of acetic acid solution. Each mouse was placed in individual transparent Plexiglas chambers, and the number of writhes was counted during a 10 min observation period. […] For the antagonism study, naloxone methiodide was sc co-administered with the respective opioid agonist, and writhing was assessed as described above.

KOR [3] = target: T2, KOR (Cavia porcellus, UniProt P41144); assay: competition radioligand binding, guinea-pig brain membranes, [3H]U69,593; details: guinea-pig brain membranes; read-out: opioid receptor binding Ki KOR
T2 construct: Membranes were prepared from Sprague-Dawley rat brains or guinea-pig brains according to the described procedures; tissue Labortierkunde und Laborgenetik, Medizinische Universität Wien; host or cells: guinea-pig brain without cerebella

DOR [4] = target: T3, DOR (Homo sapiens, UniProt P41143); assay: competition radioligand binding, CHO cell membranes expressing human DOR, [3H]diprenorphine
T3 construct: host or cells: CHO (CHO-hDOR)

DOR [5] = target: T3, DOR; assay: [35S]GTPγS binding assay, CHO-hDOR membranes; assay type: biochemical; details: for EC50: [35S]GTPγS, CHO human DOR membranes; for Emax: relative to reference full agonist DPDPE, read-out: DOR % stim.
MOR = target: T4, MOR (Homo sapiens, UniProt P35372); assay: [35S]GTPγS binding assay, CHO-hMOR membranes; assay type: biochemical; details: for EC50: [35S]GTPγS, CHO human MOR membranes, read-out: MOR EC50; for Emax: relative to reference full agonist DAMGO, read-out: MOR % stim.
T4 construct: host or cells: CHO (CHO-hMOR)

| Structure (SMILES) | EC50 (KOR [1]) [nM] | Emax (KOR [1]) [%] | effect of naloxone methiodide on antinociceptive effect [2] | Ki (KOR [3]) [nM] | Ki (DOR [4]) [nM] | EC50 (DOR [5]) [nM] | Emax (DOR [5]) [%] | EC50 (MOR) [nM] | Emax (MOR) [%] | Ki (DOR [4]; CHO cell membranes expressing human DOR, read-out: Ki DOR) [nM] | functional profile at DOR (full/partial agonist) (DOR [5]; full agonist ≥85% of the response to DPDPE) | functional profile at MOR (full/partial agonist) (MOR; full agonist ≥85% of the response to DAMGO) |
| --- | --- | --- | --- | --- | --- | --- | --- | --- | --- | --- | --- | --- |
| CC[C@H](N[C@H]1CC[C@@]2(OC)[C@H]3Cc4ccc(O)c5c4[C@@]2(CCN3C)[C@H]1O5)C(=O)O [Compound 19a, (2S)-2-[(4,5α-Epoxy-3-hydroxy-14β-methoxy-17-methylmorphinan-6α-yl)amino]-2-ethylacetic Acid Dihydrochloride] | 942 ± 235 | 61 ± 2 | reversed | 144 ± 7 | 38 ± 15.4 | 98.2 ± 5.1 | 104 ± 9 | 5.12 ± 0.09 | 88 ± 2 |  |  |  |
| CO[C@@]12CC[C@H](N[C@H](C(=O)N[C@@H](Cc3ccc(O)cc3)C(=O)O)C(C)C)[C@@H]3Oc4c(O)ccc5c4[C@@]31CCN(C)[C@@H]2C5 [Compound 22a, (2S)-2-[[(4,5α-Epoxy-3-hydroxy-14β-methoxy-17-methylmorphinan-6α-yl)amino]-(2S)-3-methylbutyrylamino]-3-(4-hydroxyphenyl)propionic Acid] | 330 ± 179 | 50 ± 2 | reversed | 69 ± 2.5 |  | 1.16 ± 0.6 | 88 ± 5 | 0.89 ± 0.04 | ~80 | 1.46 ± 0.59 | full agonists | partial agonists |
